# Columns and labels:
# [1] = tested on: CD19+ B-cell; test: Phase 2b trial: plasma CD19+ B-cell count in the placebo run-out cohort; format: in vivo, human; details: Cohort 1
# Protocol: (§1) OUTCOMES: The outcomes evaluated in this example include measuring the incidence of relapse during 4-week placebo run-in and run-out, the number of new Gd-enhancing T1 lesions detected with magnetic resonance imaging (MRI) at Weeks 4, 8 and 16, the number of new or enlarging T2 lesions measured at Weeks 4, 8 and 16, and the plasma CD19+B-cell count measured in the placebo run-out cohort at baseline, 1 hour after the first dose, then at Week 12 and Week 16 (FIG. 3).
# [2] = tested on: patients with relapsing multiple sclerosis; test: Phase 2b dose-finding study: total number of Gd-enhancing T1-hyperintense lesions by brain MRI; details: for Count of Gd-enhancing T1-hyperintense lesions, observed mean (SD): 12 weeks of treatment
# Protocol: (§3) New T1 Gd-enhancing hyperintense and new and enlarging T2 lesions are evaluated at each visit as per the SoA (Table 1), comparing lesion count to that from the previous MRI scan. Unless specified otherwise, the baseline brain MRI is used as the reference to assess all MRI-derived endpoints. The baseline MRI is the last MRI performed before the randomization visit. Standardized endpoint evaluation is assured by central review of brain MRI scans. Blinded central review is performed for all MRI-derived endpoints. Magnetic resonance imaging reviewers are blinded to treatment assignments and to other participant data.
# As it is reasonable to assume a constant rate of lesion formation over 12 weeks under placebo for total number of Gd-enhancing T1-hyperintense lesions, the same approach as that utilized for the primary endpoint is used, by using the Week 4 data in Cohort 2 as the Week 12 placebo data while accounting for the within-participant correlation. Descriptive summary statistics over time is provided for each of the 4 BTK inhibitor doses.
# For each secondary endpoint, a similar negative binomial model and the MCP-Mod procedure were used. As it is reasonable to assume a constant rate of lesion formation over 12 weeks under placebo treatment, the same approach as that utilized for the primary endpoint was used, i.e., using the Week 4 data in Cohort 2 as the Week 12 placebo data while accounting for within-participant correlation. Descriptive summary statistics over time were provided for each of the 4 BTK inhibitor dose groups.
# [3] = tested on: patients with relapsing multiple sclerosis; test: Phase 2b trial: incidence of MS relapse during placebo run-out after tolebrutinib; format: in vivo, human
# Text: Unscheduled assessment visits for a suspected multiple sclerosis relapse: Participants are instructed to immediately report new neurological symptoms and recurring or worsening of previous symptoms to the Investigator. Any reported symptoms are to be collected. If a participant reports symptoms that may be consistent with relapse, an unscheduled assessment visit with the Investigator is scheduled as soon as possible (whenever possible within 7 days of onset of the symptoms). The Investigator assesses whether the reported episode is consistent with the definition of MS relapse (see Example 1.6B). If it is consistent with the definition of MS relapse or if there is any doubt and relapse cannot be ruled out, an EDSS assessment should be performed. Unscheduled visit activities are detailed in SoA (Table 1), they need to be adapted, if other pathology than MS is cause for it, and additional examinations or laboratory tests are needed for safety follow up and optimal treatment decisions.
# Multiple sclerosis relapse: For the purposes of this study, MS relapse is defined as acute, new neurological symptoms or worsening of previous neurological symptoms with an objective change on neurological examination. Symptoms must: • Be attributable to MS • Last for >24 hours, and • Be present at normal body temperature (i.e., no infection, excessive exercise, or excessively high ambient temperature)
# METHODS: As described in Examples 1 and 2, the 16-week, double-blind, crossover trial randomized 130 patients with RMS (1:1:1:1) to tolebrutinib 5, 15, 30, or 60 mg/day. […]
# as §1
# [4] = target: T1, CYP2C8 (Homo sapiens, UniProt P10632); test: Preclinical drug metabolism studies: CYP2C8; format: in vitro ADME
# T1 sequence (P10632 1-490): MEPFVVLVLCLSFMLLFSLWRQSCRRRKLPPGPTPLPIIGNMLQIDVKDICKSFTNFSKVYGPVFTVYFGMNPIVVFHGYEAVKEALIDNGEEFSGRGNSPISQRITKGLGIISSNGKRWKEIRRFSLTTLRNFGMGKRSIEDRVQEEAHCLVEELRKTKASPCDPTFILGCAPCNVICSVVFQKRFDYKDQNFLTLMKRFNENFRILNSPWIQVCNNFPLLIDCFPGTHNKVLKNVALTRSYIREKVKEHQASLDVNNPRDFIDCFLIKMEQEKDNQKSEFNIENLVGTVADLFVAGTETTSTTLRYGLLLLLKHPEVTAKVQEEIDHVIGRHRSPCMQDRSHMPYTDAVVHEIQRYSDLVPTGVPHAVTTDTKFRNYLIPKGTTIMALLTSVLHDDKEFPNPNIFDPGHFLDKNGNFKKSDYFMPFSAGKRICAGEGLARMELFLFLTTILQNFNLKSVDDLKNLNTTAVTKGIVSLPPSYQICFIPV
# Text: See Table 12 for the list of drugs not to be used.
# [5] = tested on: patients with RMS; test: Ongoing tolebrutinib Phase 3 trials: drug-induced liver injury; format: in vivo, human; details: ongoing Phase 3 trials
# Text: Drug-induced liver injury has been identified in the ongoing tolebrutinib Phase 3 trials. The reported events occurred between months 2 to 3 after the start of tolebrutinib administration, and the elevation of liver enzymes appears reversible after tolebrutinib discontinuation. Thus, there is a need to mitigate the risk of hepatic injury and provide safe treatment for patients with RMS.
# [6] = tested on: patients with relapsing multiple sclerosis; test: Phase 2b dose-finding study: number of new Gd-enhancing T1-hyperintense lesions by brain MRI; details: for New Gd-enhancing T1-hyperintense lesion count, observed mean (SD): 12 weeks of treatment, Cohorts 1 and 2 pooled; for Patients with no new Gd-enhancing T1 lesions / Gd-enhancing T1 lesion count, mean (SD): Cohort 1 (all doses); for Gd+ lesion count, mean (SD): Cohort 1, 60 mg/day
# Protocol: Cranial (brain) MRI with and without Gd contrast is performed. Basic MRIs are performed for all participants at all study sites and consist of T2- and T1-weighted sequences without and with Gd contrast.
# as §3
# The first step of this procedure tests for an efficacy signal (compared to the null hypothesis of a flat, no dose-response curve) in a procedure that controls the type 1 error. […] The second step is the Dose estimation of the dose-response curve, provided that an efficacy signal is established in the first step.
# The 4-week post-randomization placebo data from Cohort 2 (i.e., Week 4 data from Cohort 2) is utilized as the placebo data at Week 12 in analysis, under the assumption of a constant rate of Gd-enhancing T1-hyperintense lesion formation if participants would be receiving placebo over 12 weeks. Participants in Cohort 2 contribute to the placebo data (at Week 4) as well as the data for 4 BTK inhibitor doses (at Week 16). […] If step 1 yields significant results, the best fitting model from the 6 predefined candidate models is chosen using the generalized Akaike information criterion (AIC).
# The first step of this procedure tested for an efficacy signal (compared to the null hypothesis of a flat, no dose-response curve) in a procedure that controls the type 1 error.
# The MRI assessments were excluded from the analyses if the participant was receiving systemic corticosteroids within the 30 days prior to the MRI assessment date. The 4-week post-randomization placebo data from Cohort 2 (i.e., Week 4 data from Cohort 2) was utilized as the placebo data at Week 12 in analysis under the assumption of a constant rate of Gd-enhancing T1-hyperintense lesion formation if participants were to receive placebo over 12 weeks. Participants in Cohort 2 contributed to the placebo data (at Week 4) as well as the data for 4 BTK inhibitor doses (at Week 16). The 4-week placebo run-out data from Cohort 1 was not included in the analysis. […] Test statistics and adjusted p-values were provided for all 6 candidate models.
# [7] = tested on: patients with relapsing multiple sclerosis; test: Long-term safety extension: slowly evolving lesions (SEL) volume (MRI); format: in vivo, human; details: W96
# Protocol: (§2) In the current open-label extension Part B, all patients receive 60 mg/day. MRI outcomes include numbers of new Gd-enhancing and new/enlarging T2 lesions, T2 lesion volume change from baseline, slowly evolving lesions (SEL), and paramagnetic rim lesions (PRL).
# [8] = tested on: patients with relapsing multiple sclerosis; test: Long-term safety extension: paramagnetic rim lesions (PRL) count (MRI); format: in vivo, human
# Protocol: as §2
# [9] = 5 mg daily, after 12 weeks of treatment
# [10] = 15 mg daily, after 12 weeks of treatment
# [11] = 30 mg daily, after 12 weeks of treatment
# [12] = 60 mg daily, after 12 weeks of treatment
# [13] = Cohort 1 (all doses), 4-week placebo run-out after 12 weeks of tolebrutinib
# [14] = after 4 weeks of placebo run-out
compound,measurement,setting,value
"C=CC(=O)N1CCC[C@@H](n2c(=O)n(-c3ccc(Oc4ccccc4)cc3)c3c(N)nccc32)C1 [the BTK inhibitor, (R)-1-(1-acryloylpiperidin-3-yl)-4-amino-3-(4-phenoxyphenyl)-1H-imidazo[4,5-c]pyridin-2(3H)-one]",Number of B cells in the peripheral circulation after placebo run-out,[1]; after the 4-week placebo run-out period,returned towards baseline level
same,Number of B cells in the peripheral circulation after the first dose,[1]; within 1 hour after the first dose,increased
same,"Total Gd-enhancing T1-hyperintense lesion count, Mean",[2]; [9],1.77
same,"Total Gd-enhancing T1-hyperintense lesion count, Median",[2]; [9],0.00
same,"Count of Gd-enhancing T1-hyperintense lesions, observed mean (SD)",[2]; 5 mg once daily,1.77 (4.10)
same,Patients with 2 total Gd-enhancing T1-hyperintense lesions,[2]; [10],0 n
same,"Total Gd-enhancing T1-hyperintense lesion count, Mean",[2]; [10],0.87
same,"Total Gd-enhancing T1-hyperintense lesion count, Median",[2]; [10],0.00
same,"Count of Gd-enhancing T1-hyperintense lesions, observed mean (SD)",[2]; 15 mg once daily,0.87 (1.59)
same,"Total Gd-enhancing T1-hyperintense lesion count, Mean",[2]; [11],1.18
same,"Total Gd-enhancing T1-hyperintense lesion count, Median",[2]; [11],0.00
same,"Count of Gd-enhancing T1-hyperintense lesions, observed mean (SD)",[2]; 30 mg once daily,1.18 (4.87)
same,"Total Gd-enhancing T1-hyperintense lesion count, Mean",[2]; [12],0.29
same,"Total Gd-enhancing T1-hyperintense lesion count, Median",[2]; [12],0.00
same,"Count of Gd-enhancing T1-hyperintense lesions, observed mean (SD)",[2]; 60 mg once daily,0.29 (0.86)
same,Participants with no Gd-enhancing T1-hyperintense lesions,"[2]; 60 mg, end of 12 weeks of treatment, 27 of 31 with evaluable MRI",87.1%
same,Relative reduction in total count of Gd-enhancing T1-hyperintense lesions relative to placebo,"[2]; any of the doses tested (5, 15, 30, 60 mg), 12 weeks",No statistically significant relative reduction
same,Patients relapse-free during the placebo run-out,[3]; [13],98.4%
same,Relapses during the placebo run-out,[3]; [13],1
same,Rebound disease activity after discontinuation,"[3]; patients with RMS, 4-week placebo run-out, preliminary findings",does not induce rebound disease activity
same,Substrate of CYP2C8 isoenzyme,[4],substrate
same,Course of the elevation of liver enzymes after discontinuation,[5],reversible
same,Drug-induced liver injury,[5],identified
same,"New Gd-enhancing T1-hyperintense lesion count, Mean",[6]; [9],1.39
same,"New Gd-enhancing T1-hyperintense lesion count, Median",[6]; [9],0.00
same,"New Gd-enhancing T1-hyperintense lesion count, observed mean (SD)",[6]; 5 mg once daily,1.39 (3.20)
same,"New Gd-enhancing T1-hyperintense lesion count, Mean",[6]; [10],0.77
same,"New Gd-enhancing T1-hyperintense lesion count, Median",[6]; [10],0.00
same,"New Gd-enhancing T1-hyperintense lesion count, observed mean (SD)",[6]; 15 mg once daily,0.77 (1.48)
same,"New Gd-enhancing T1-hyperintense lesion count, Mean",[6]; [11],0.76
same,"New Gd-enhancing T1-hyperintense lesion count, Median",[6]; [11],0.00
same,"New Gd-enhancing T1-hyperintense lesion count, observed mean (SD)",[6]; 30 mg once daily,0.76 (3.31)
same,"New Gd-enhancing T1-hyperintense lesion count, Mean",[6]; [12],0.13
same,"New Gd-enhancing T1-hyperintense lesion count, Median",[6]; [12],0.00
same,Patients with >=3 new Gd-enhancing T1-hyperintense lesions,[6]; [12],0 n
same,"New Gd-enhancing T1-hyperintense lesion count, observed mean (SD)",[6]; 60 mg once daily,0.13 (0.43)
same,Relative reduction in new Gd-enhancing T1-hyperintense lesions compared with placebo,"[6]; 60 mg, 12 weeks, negative binomial regression model adjusted for baseline lesion activity, 95% CI [28.02%, 96.88%], nominal p=0.0178",85.02%
same,Participants with no new Gd-enhancing T1-hyperintense lesions,"[6]; 60 mg, end of 12 weeks of treatment, 28 of 31 with evaluable MRI",90.30%
same,Dose-response for reduction in number of new active Gd-enhancing T1-hyperintense brain lesions,"[6]; 5-60 mg once daily, after 12 weeks of treatment, MCP-Mod",dose-response relationship
same,Patients with no new Gd-enhancing T1 lesions,[6]; 4 weeks after discontinuing tolebrutinib (placebo run-out),85.2%
same,"Gd-enhancing T1 lesion count, mean (SD)",[6]; [14],0.44 (1.70)
same,"Gd-enhancing T1 lesion count, mean (SD)",[6]; after 12 weeks of tolebrutinib,0.37 (0.99)
same,Patients with no new Gd-enhancing T1 lesions,[6]; after 12 weeks of tolebrutinib treatment,83.3%
same,"Gd+ lesion count, mean (SD)",[6]; [14],0.31 (0.70)
same,"Gd+ lesion count, mean (SD)",[6]; after 12 weeks of tolebrutinib,0.20 (0.56)
same,"SEL volume, median (IQR)",[7]; 5/60-mg arm,247.5 (84-420) mm3
same,"SEL volume, median (IQR)",[7]; 15/60-mg arm,258 (66-906) mm3
same,"SEL volume, median (IQR)",[7]; 30/60-mg arm,570 (133.5-1011) mm3
same,"SEL volume, median (IQR)",[7]; 60/60-mg arm,244.5 (87-939) mm3
same,Patients in whom PRL count remained unchanged,"[8]; W96 vs baseline, all arms",18 patients
same,Patients with 1 PRL at baseline but none at W96,[8]; all arms,2 patients
same,Patients with 1-3 additional PRL at W96 vs baseline,[8]; none in the 60/60 mg arm,3 patients
